Reference: ChEMBL document CHEMBL5104218, “Effects of 6-Aminonicotinic Acid Esters on the Reprogrammed Epigenetic State of Distant Metastatic Pancreatic Carcinoma” (ACS Med Chem Lett, 2022)
Active and inactive are the calls of the source. The rule behind the calls is not given here.

Key:
[1] = biological target: T1, 6-phosphogluconate dehydrogenase, decarboxylating (Homo sapiens) (UniProt P52209); assay: Inhibition of 6PGD in human A38-5 cells assessed as increase in intracellular H3K9me3 level at 0.1 to 1000 uM incubated for 45 mins by HTRF assay; type: cell-based; settings: dose 0.1-1000 µM
T1 sequence (whole entry): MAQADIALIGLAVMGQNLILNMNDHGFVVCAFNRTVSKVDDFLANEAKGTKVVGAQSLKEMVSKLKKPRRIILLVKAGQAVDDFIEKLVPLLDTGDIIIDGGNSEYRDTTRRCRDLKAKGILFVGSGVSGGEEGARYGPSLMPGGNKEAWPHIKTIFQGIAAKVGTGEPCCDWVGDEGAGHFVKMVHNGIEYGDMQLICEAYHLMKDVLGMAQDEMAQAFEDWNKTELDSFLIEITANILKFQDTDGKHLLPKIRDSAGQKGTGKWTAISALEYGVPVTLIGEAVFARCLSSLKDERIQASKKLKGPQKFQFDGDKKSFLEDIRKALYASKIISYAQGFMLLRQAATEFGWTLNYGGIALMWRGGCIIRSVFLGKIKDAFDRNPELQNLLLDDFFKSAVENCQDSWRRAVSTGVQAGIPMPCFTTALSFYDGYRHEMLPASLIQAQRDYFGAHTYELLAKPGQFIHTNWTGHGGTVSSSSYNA

Glutathione reductase = biological target: T2, Glutathione reductase (Rattus norvegicus, UniProt P70619); assay: Inhibition of rat glutathione reductase by spectrophotometric method
T2 sequence (P70619 whole entry): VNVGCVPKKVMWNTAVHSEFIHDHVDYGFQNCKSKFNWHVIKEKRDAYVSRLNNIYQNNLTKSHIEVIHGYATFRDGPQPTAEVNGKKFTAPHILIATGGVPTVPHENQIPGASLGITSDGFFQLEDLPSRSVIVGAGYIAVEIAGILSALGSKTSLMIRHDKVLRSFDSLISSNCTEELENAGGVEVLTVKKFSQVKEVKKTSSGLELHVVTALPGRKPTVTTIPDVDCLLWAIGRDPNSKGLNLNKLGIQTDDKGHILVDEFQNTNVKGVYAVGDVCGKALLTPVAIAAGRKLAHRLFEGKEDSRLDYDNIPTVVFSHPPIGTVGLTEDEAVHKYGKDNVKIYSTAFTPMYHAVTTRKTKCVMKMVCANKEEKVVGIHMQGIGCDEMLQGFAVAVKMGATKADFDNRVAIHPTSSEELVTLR

[2] = biological target: T3, 6-phosphogluconate dehydrogenase, decarboxylating (Rattus norvegicus, UniProt P85968); assay: Inhibition of rat 6PGD assessed as inhibition constant by spectrophotometric method
T3 sequence (P85968 whole entry): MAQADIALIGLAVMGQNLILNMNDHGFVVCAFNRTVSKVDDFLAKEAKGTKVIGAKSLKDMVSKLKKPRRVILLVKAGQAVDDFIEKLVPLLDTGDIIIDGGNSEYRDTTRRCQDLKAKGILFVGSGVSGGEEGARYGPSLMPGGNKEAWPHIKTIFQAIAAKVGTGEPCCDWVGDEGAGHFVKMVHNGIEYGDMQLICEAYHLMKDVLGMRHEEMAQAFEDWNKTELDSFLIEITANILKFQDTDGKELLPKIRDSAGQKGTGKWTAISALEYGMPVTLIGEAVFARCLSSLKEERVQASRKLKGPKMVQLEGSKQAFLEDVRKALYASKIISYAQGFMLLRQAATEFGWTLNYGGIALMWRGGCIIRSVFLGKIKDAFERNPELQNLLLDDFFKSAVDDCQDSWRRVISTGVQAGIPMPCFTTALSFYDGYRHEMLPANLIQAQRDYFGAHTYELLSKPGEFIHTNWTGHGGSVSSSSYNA

[3] = biological target: T3, 6-phosphogluconate dehydrogenase, decarboxylating; assay: Inhibition of rat 6PGD by spectrophotometric method
[4] = biological target: Glucose-6-phosphate 1-dehydrogenase (Rattus norvegicus, UniProt P05370); assay: Inhibition of rat G6PD by spectrophotometric method
Sequence of Glucose-6-phosphate 1-dehydrogenase (P05370 whole entry): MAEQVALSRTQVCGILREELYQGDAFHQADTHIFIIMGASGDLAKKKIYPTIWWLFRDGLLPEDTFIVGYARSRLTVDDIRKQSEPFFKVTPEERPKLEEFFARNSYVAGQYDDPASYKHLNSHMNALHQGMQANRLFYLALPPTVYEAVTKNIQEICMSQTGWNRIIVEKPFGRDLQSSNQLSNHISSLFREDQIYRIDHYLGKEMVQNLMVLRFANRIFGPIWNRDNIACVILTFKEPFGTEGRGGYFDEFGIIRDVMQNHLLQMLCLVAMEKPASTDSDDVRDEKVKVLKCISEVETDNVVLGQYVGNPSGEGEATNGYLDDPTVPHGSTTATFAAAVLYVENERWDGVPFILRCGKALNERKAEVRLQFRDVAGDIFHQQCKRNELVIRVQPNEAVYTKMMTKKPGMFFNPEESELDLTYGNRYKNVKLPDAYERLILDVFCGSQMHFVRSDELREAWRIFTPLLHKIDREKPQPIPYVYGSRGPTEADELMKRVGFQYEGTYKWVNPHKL

[5] = Neurotoxicity against Sprague-Dawley rat Primary hippocampal neuron assessed as increase in TUNEL positive cells at 5 uM incubated for 24 hrs by TUNEL staining based microscopy; type: toxicity, cell-based; settings: hippocampal neurone
A38-5 = assay: Cytotoxicity against human A38-5 cells assessed as reduction in cell viability at 0.06 to 250 uM incubated for 72 hrs by CellTiter-Glo assay relative to 6AN; type: functional, cell-based; settings: dose 0.06-250 µM
[6] = biological target: T1, 6-phosphogluconate dehydrogenase, decarboxylating (Homo sapiens); assay: Inhibition of 6PGD in human A38-5 cells assessed as increase in intracellular H3K9me3 expression level at 1 to 250 uM incubated for 72 hrs by western blot analysis; type: cell-based; settings: dose 1-250 µM
[7] = biological target: T1, 6-phosphogluconate dehydrogenase, decarboxylating (Homo sapiens); assay: Inhibition of 6PGD in human A38-5 cells assessed as increase in Ru-5-P level at 15.6 uM incubated for 72 hrs by mass spectrometry; type: cell-based
[8] = Neurotoxicity against Sprague-Dawley rat Primary hippocampal neuron assessed as increase in TUNEL positive cells at 50 uM incubated for 24 hrs by TUNEL staining based microscopy; type: toxicity, cell-based; settings: hippocampal neurone
[9] = biological target: T1, 6-phosphogluconate dehydrogenase, decarboxylating (Homo sapiens); assay: Inhibition of 6PGD in human A38-5 cells assessed as increase in intracellular H3K9me3 level at 1 uM incubated for 45 mins by HTRF assay; type: cell-based
[10] = biological target: T1, 6-phosphogluconate dehydrogenase, decarboxylating (Homo sapiens); assay: Inhibition of 6PGD in human A38-5 cells assessed as fold increase in 6PG level at 15.6 uM incubated for 72 hrs by mass spectrometry; type: cell-based
[11] = biological target: Glucose-6-phosphate 1-dehydrogenase (Homo sapiens) (UniProt P11413); assay: Inhibition of G6PD in human A38-5 cells assessed as fold increase in G6P level at 15.6 uM incubated for 72 hrs by mass spectrometry; type: cell-based
Sequence of Glucose-6-phosphate 1-dehydrogenase (Homo sapiens) (P11413 whole entry): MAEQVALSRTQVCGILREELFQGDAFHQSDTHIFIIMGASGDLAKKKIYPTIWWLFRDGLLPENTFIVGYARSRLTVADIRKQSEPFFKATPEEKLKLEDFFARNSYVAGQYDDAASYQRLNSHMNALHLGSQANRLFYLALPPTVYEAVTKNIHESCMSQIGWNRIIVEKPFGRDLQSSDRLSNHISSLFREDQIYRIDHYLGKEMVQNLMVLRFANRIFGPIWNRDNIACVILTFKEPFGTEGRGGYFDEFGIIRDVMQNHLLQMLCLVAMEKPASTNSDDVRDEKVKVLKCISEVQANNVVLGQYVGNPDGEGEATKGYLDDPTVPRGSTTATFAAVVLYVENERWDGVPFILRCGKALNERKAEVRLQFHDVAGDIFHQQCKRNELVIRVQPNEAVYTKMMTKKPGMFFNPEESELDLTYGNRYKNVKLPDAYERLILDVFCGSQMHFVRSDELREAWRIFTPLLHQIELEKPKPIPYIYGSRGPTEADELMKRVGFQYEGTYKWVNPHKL

[12] = biological target: T1, 6-phosphogluconate dehydrogenase, decarboxylating (Homo sapiens); assay: Inhibition of 6PGD in human A38-5 cells assessed as increase in Ru-5-P level at 250 uM incubated for 72 hrs by mass spectrometry; type: cell-based
[13] = biological target: T1, 6-phosphogluconate dehydrogenase, decarboxylating (Homo sapiens); assay: Inhibition of 6PGD in human A38-5 cells assessed as fold increase in 6PG level at 250 uM incubated for 72 hrs by mass spectrometry; type: cell-based
[14] = biological target: T1, 6-phosphogluconate dehydrogenase, decarboxylating (Homo sapiens); assay: Inhibition of 6PGD in human A38-5 cells assessed as fold increase in intracellular H3K9me3 level at 250 uM incubated for 45 mins by HTRF assay; type: cell-based
[15] = biological target: Glucose-6-phosphate 1-dehydrogenase (Homo sapiens) (UniProt P11413); assay: Inhibition of G6PD in human A38-5 cells assessed as fold increase in G6P level at 250 uM incubated for 72 hrs by mass spectrometry; type: cell-based

CC(C)C(=O)OCOC(=O)c1ccc(N)nc1
activity outcome (qualitative) [1]: Active

CCOC(=O)OCOC(=O)c1ccc(N)nc1
activity outcome (qualitative) ([1]; DDE = dose-dependent effect): Dde

CC(=O)OCOC(=O)c1ccc(N)nc1
activity outcome (qualitative) [1]: Active

NC(=O)c1ccc(N)[n+]([C@@H]2O[C@H](COP(=O)(O)OP(=O)(O)OC[C@H]3O[C@@H](n4cnc5c(N)ncnc54)[C@H](OP(=O)(O)O)[C@@H]3O)[C@@H](O)[C@H]2O)c1
IC50 (Glutathione reductase): 46 µM | Ki [2]: 0.1 µM | IC50 [3]: 0.2 µM | IC50 [4]: 70 µM

CCCC(=O)OCOC(=O)c1ccc(N)nc1
activity outcome (qualitative) [1]: Active

CC(OC(=O)OC1CCCCC1)OC(=O)c1ccc(N)nc1 (stereo not given)
Activity [5]: Non-Toxic | Activity (A38-5): Active | inhibition [6]: Active | inhibition [7]: Active | activity outcome (qualitative) ([1]; DDE = dose-dependent effect): Dde | Activity [8]: Non-Toxic | inhibition [9]: Active | fold change (FC) [10]: 150 | fold change (FC) [11]: 2

CCOC(=O)OC(C)OC(=O)c1ccc(N)nc1 (stereo not given)
activity outcome (qualitative) ([1]; DDE = dose-dependent effect): Dde

NC(=O)c1ccc(N)nc1 [6-AMINONICOTINAMIDE]
Activity [5]: Toxic | inhibition [12]: Active | activity outcome (qualitative) ([1]; DDE = dose-dependent effect): Dde | fold change (FC) [13]: 150 | fold change (FC) [14]: 2.5 | Activity [8]: Toxic | fold change (FC) [15]: 2
